Measured values published in US10774390B2, “Methods and compositions for modulating PrfA mediated virulence gene activation in Listeria spp” (The Regents of the University of California, priority 2015, dated 2020).

What was measured:
PrfA = PrfA activation in L. monocytogenes strains expressing TagRFP from the actA promoter, grown in media with or without reducing agents; format: cell-based, Listeria monocytogenes; conditions: for activation of PrfA in vitro: L. monocytogenes grown in chemically defined media, excess of exogenously added reducing agent; for Optimal concentration for prfA activation: reducing agent added to chemically defined media (Table 1); for induction of ActA (FIG. 1): chemically defined media, fluorescent reporter driven by actA promoter
Description: Experiments were conducted to identify any additional factors required for PrfA activation.
Three different strains were employed: WT 10403S (Lauer et al., J. Bacteriol. (2002) 184:4177-4186; ΔprfA which was an in frame deletion in prfA made by allelic exchange; and PrfA* which has a G145S mutation. The strains were engineered to express TagRFP from the actA promoter (e.g., as reported in Waite et al., PLoS Pathog. (2011)7:e1001326. A chemically defined media detailed in Table 1 was prepared.
Next, a number of reducing agents listed in Table 2 were added to the media.
The three strains were grown in the chemically defined media with or without the addition of the noted reducing agents.

Listeria monocytogenes = assay: Virulence of strains grown with or without reducing agent: bacterial burdens in organs of intravenously infected mice; format: in vivo, CD-1 mice
Description: FIG. 2. In this experiment bacteria were grown in rich media (BHI) or Listeria synthetic media (LSM) with or without reducing agent (TCEP) and injected into mice IV. The data are CFUs at […] in liver and spleens. WT bacteria and a PrfA* strain that has constitutively active PrfA were used.
Prior to infection, bacterial strains were grown to stationary phase overnight in Listeria Synthetic Media (LSM) at 37° C., then diluted into either BHI or LSM, with or without reducing agent (2 mM TCEP) and grown at 37° C. with shaking until the OD600 was approximately 0.5. Cultures were re-suspended in 1× phosphate-buffered saline (PBS) and used to intravenously infect female CD-1 mice between 6 and 8 weeks of age with a final inoculum of 10^5 bacteria. At 48 hrs post-infection, mice were sacrificed and organs collected. Bacterial burdens were enumerated by plating organ homogenates on LB plates and incubating overnight.
WT bacteria and a PrfA* strain that has constitutively active PrfA were used.

SMILES	activation of PrfA in vitro (PrfA)	Optimal concentration for prfA activation (PrfA) [mM]	induction of ActA (FIG. 1) (PrfA)	PrfA activation (PrfA; exogenous glutathione, standard complex broth culture)	bacteria in the organs (CFU, liver and spleen), fold more (Listeria monocytogenes; bacteria grown in LSM plus 2 mM TCEP, IV, 10^5 bacteria, 48 hrs post-infection)	activation of PrfA-dependent expression, measured by virulence (Listeria monocytogenes; defined medium and TCEP, compared with PrfA* strain)
O[C@H](CS)[C@H](O)CS (racemic) [dithiothreitol (DTT), dithiothreitol]	recapitulated	2	–	–	–	–
OCCS [2-mercaptoethanol (BME), 2-mercaptoethanol]	recapitulated	2	–	–	–	–
N[C@@H](CCC(=O)N[C@@H](CS)C(=O)NCC(=O)O)C(=O)O [Glutathione (reduced), Glutathione]	sufficient to stimulate activation of PrfA	10	induction of ActA	insufficient to stimulate PrfA activation	–	–
N[C@@H](CS)C(=O)O [L-Cysteine]	–	10	induction of ActA	–	–	–
O=C(O)CCP(CCC(=O)O)CCC(=O)O [tris(2-carboxyethyl)phosphine (TCEP), tris(2-carboxyethyl)phosphine]	recapitulated	2	induction of ActA	–	around 50 fold	equivalent to that of a PrfA-constituitive mutant
